Assay [1] concerns A/T rich indicator duplex 5′-CTTTATTATTTT-3′ (SEQ ID NO: 2 and complement) versus competitor oligonucleotides. Briefly: Fluorescence quenching competition assay with unlabeled competitor duplexes. The format is binding. As to conditions: for sequence preference from competitor oligos of Table III (FIG. 6): 0.4 μM drug, 0.4 μM unlabeled duplex competitor; for 5 bp A/T site bound most strongly / preferred (FIGS. 11, 12) / discrimination among 5 bp A/T binding sites (FIGS. 11, 12): 5 bp A+T site competitors, Table VI. An excerpt:
Direct assays, as described above, are useful for first level screening of ligand-oligonucleotide binding, e.g. preference for DNA vs. RNA, or A/T vs. C/G rich sequences. In a “next-stage” assay, termed herein a competition or competitive assay, a binding oligonucleotide for a particular ligand, such as determined from direct assays, is used as an “indicator” for competitive studies, which give a further level of detail about ligand binding preferences. A competition experiment starts with first and second indicator oligonucleotides, as described above, containing, respectively, a first group effective to produce a detectable signal, and a second group effective to alter this signal. At the beginning of the assay, the ligand is bound to a duplex of the sequences. Again, experimental conditions of temperature, salt content, etc. are preferably adjusted such that, in the absence of the ligand, the oligonucleotides would exist primarily in single-stranded form. As noted above, the preferred temperature is somewhat higher than the Tm of the duplex (in the absence of ligand) under the conditions of the assay. If desired, for the sake of convenience, conditions may be adjusted so that the assay can be carried out at or near room temperature.
At the beginning of the assay, the indicator sequences form a duplex in the presence of the ligand, so fluorescence is at a minimum for the system. (When other detection systems are used, the signal observed will be that in which the first and second groups are in close proximity.) A “competitor” sequence, having no second (e.g. quenching) group, is then added, typically as a duplex with its complementary sequence. The competing sequence tends to remove the ligand from the indicator duplex at concentrations that become lower as the affinity of the competing sequence for the ligand becomes greater. Alternatively, the competing sequence removes the ligand more effectively at concentrations equimolar with the indicator duplex as the affinity of the competing sequence for the ligand becomes greater. As the ligand is removed, the indicator sequences denature to single-stranded form, quenching is no longer effective (in an F/Q system), and fluorescence increases.
Competition Assays: Competition experiments were generally done in […] HEPES, pH 7.5, 0.1 mM EDTA and 50 mM NaCl. The drug concentration used in the competition assays depends upon the affinity of the drug for a given indicator. For the competition experiments shown, the netropsin and distamycin concentrations used were 0.4 μM. The amount of competitor oligo used was varied from 0.2 μM to 1.0 μM. The data shown is from competition experiments using 0.4 μM unlabeled duplex competitors (see Tables III-VI for the sequences of the competitor oligos).
An unlabeled competitor duplex, selected from those whose sequences are given in Table […], was added at a 0.4 μM concentration, and the change in fluorescence was noted.
Changes in fluorescence of the indicator duplex/netropsin mixture on adding each competitor oligonucleotide are given in FIG. 12.

For assay [2], the system named is CTTTATTATTTT (AT-rich) DNA duplex (SEQ ID NO: 2). The experiment in a line: SPA direct binding assay, A/T-rich indicator duplex. An excerpt: This technology can be applied to studies of ligand binding as disclosed herein. Example 13, below, describes the use of the assay in a high throughput screening method, using the SPA detection system. In this example, the first oligonucleotide is labeled with biotin, and is then tightly bound to streptavidin-coated SPA beads via the strong biotin/streptavidin interaction. These beads are impregnated with scintillant. The second oligonucleotide is labeled with a weak β-emitter, such as ^3H or ^33P. The radioactive second oligonucleotide is mixed with a solution of the beads under conditions at which the first and second oligonucleotides exist primarily as single strands, as described above. The signal will thus be low, as the oligonucleotides are non-hybridized. When ligand is added, the duplex form is stabilized, and the increased proximity of the radioactive isotope (e.g., ^3H, ^33P) in the second oligonucleotide causes the bead to which the first oligonucleotide is bound to scintillate. A signal thus indicates the presence of an effective binding ligand molecule; test sequences giving higher signals indicate the relative preference for different sequences.
The data in Table II compare raw signal counts from SPA assays using three different oligonucleotides and three concentrations (0, 100, and 500 nM) of the DNA binding drug distamycin. The oligonucleotides used were G/C-rich (CCGCGCC; SEQ ID NO: 6), A/T-rich (CTTTATTATTTT; SEQ ID NO: 2), or mixed sequence (GCGGTATTT; SEQ ID NO: 12) DNA duplexes. One strand of the duplex was synthesized with a 5′-biotin label, the other strand was labeled with ^33P, as described in Example 13.
Indicator oligonucleotides as shown in Table 1 were used in this assay, as shown in Table II and FIGS. 4A-E. One strand of each duplex was labeled with biotin at the 5′-end, and the complementary strand was 3′-labeled with ^33P. The two complementary strands were incubated with streptavidin-coated SPA beads (Amersham, Arlington Heights, Ill.) at room temperature in a buffer containing 20 mM HEPES, pH 7.5, 0.1 mM EDTA, and 20 mM NaCl. In the absence of ligand, and under these conditions, the oligonucleotides exist in single-stranded conformation. As a result, the oligonucleotide containing the radioactive label is not in close proximity to the SPA bead, and the light given off by the beads is low, i.e., at background. As a duplex-stabilizing ligand is added, the radioactive ^33P is brought into close proximity to the SPA bead, and the light emitted from the SPA bead increases. Accordingly, each of five known DNA-binding compounds was added in increasing concentrations, and the effect on scintillation count was observed, giving the results shown in FIGS. 4A-E.

Setting [3] is: 5′-XAATTY-3′ competitor series, Table V.

Turning to `Cn1cc(NC(=O)c2cc(NC(=O)c3cc(NC=O)cn3C)cn2C)cc1C(=O)NCCC(=N)N` [Distamycin, distamycin], in assay [1], the “sequence preference from competitor oligos of Table III (FIG. 6)” value is on record as “strongly prefer A/T rich DNA”; the “5 bp A/T site bound most strongly / preferred (FIGS. 11, 12)” value is reported as 5′-AATTA-3′; the “discrimination among 5 bp A/T binding sites (FIGS. 11, 12)” value is reported as “relatively strong preferences”. Further, in assay [1] (setting [3]), the “X and Y combinations that competed most effectively (FIG. 9)” value was “AA/TT, CA/TG, GA/TC, and TA/TA”; the “sensitivity to bases at the edge of the AATT site (FIGS. 9 and 10)” value is “much more sensitive”. Besides, in assay [1] (concluded from 5′-XAATTY-3′ series), the “preferred 5 bp binding site” value is given as 5′-AATTA-3′. Also, the CPM in assay [2] (100 nM Distamycin, 10 mM Na+) worked out at 2218 CPM. For the same molecule, the CPM in assay [2] (100 nM Distamycin, 50 mM Na+) is 2448 CPM. In assay [2] (500 nM Distamycin, 10 mM Na+), this molecule registered a CPM of 3332 CPM. Also, in assay [2] (500 nM Distamycin, 50 mM Na+), the CPM is recorded as 3352 CPM.

As for `Cn1cc(NC(=O)c2cc(NC(=O)CN=C(N)N)cn2C)cc1C(=O)NCCC(=N)N` [Netropsin, netropsin], in assay [1], the “sequence preference from competitor oligos of Table III (FIG. 6)” value is “strongly prefer A/T rich DNA”; the “5 bp A/T site bound most strongly / preferred (FIGS. 11, 12)” value is “slight preference for the AAAAA site”; the “discrimination among 5 bp A/T binding sites (FIGS. 11, 12)” value is “considerably less discrimination”.

Source of the values: US6355428B1, “Nucleic acid ligand interaction assays” (Genelabs Technologies, Inc., priority 1998, dated 2002).
